The results in this text go back to patent US4474761A, “Oligopeptides with specific inhibiting properties of collagen induced aggregation, process for preparing the same and pharmaceutical compositions containing them” (Choay S.A., priority 1980, dated 1984).

This assay relates to platelet membranes. Put plainly: Linkage of tritiated nonapeptide to platelet membranes (filtration). The format is binding. Particulars: for Linkage (%) after dissociation time: Table IX. The method, then:
The study of the nature of the interaction between type III collagen and platelets is carried out in the presence of tritiated (labelled) nonapeptide of formula: […]
The complete platelets or the platelet membranes solubilized in triton (0.15%) are incubated in a physiological buffer of the type described above in the serotonin release test (in a total volume of 0.2 ml) at a temperature of 37° C. for 15 minutes. The incubation is carried out in presence of tritiated nonapeptide the specific activity of which is of […].
The nonapeptide fixed or linked to the platelet or to the membranes is separated from the free nonapeptide by filtration of the incubation medium through multiporous membranes having porosities of 0.8μ and 0.45μ respectively. The radio activity is directly determined on the filters and the percentage of linkages determined according to the following formula: [formula]
(c) Table VIII relates to the linkage specificity. It represents the linkage percentages between the platelet membranes and different peptides of the invention in the presence of various aggregation inducers (15 ng of peptide, 30 μg of platelet membrane).
The specificity of the linkage is assessed by the total displacement of the corresponding radio-activity by an excess of non labelled peptide of the invention. This excess corresponds to an amount of 100 to 1000 times more than the amount of non labelled peptide which is necessary to induce adhesion of the platelets.
Said reversibility has been studied in the presence of two concentrations of labelled (nona)peptide which are respectively of 3 and 6 ng, for 30 μg of platelet membranes. After the binding of the labelled nonapeptide to the membranes, the incubation media are diluted to the 80 volumes:
in the absence of non labelled (nona)peptide;
and in the presence of an excess of non labelled (nona)peptide (as indicated under c) for the reversibility test).
The percentage of linkage is then determined as a function of an incubation duration ranging from 0 to 15 minutes.
The reversibility is measured by the dissociation factor and the dissociation time.

Where no end group is shown, it is not given here. [ ]: non-standard residue; d: D form. Hyp = O=C(O)[C@@H]1C[C@@H](O)CN1

With `CNCC(O)c1ccc(O)c(O)c1` (stereo not shown) [Adrenaline, reference compound], for the setting “Table VIII, Nonapeptide H^3 15 ng, platelet membranes 30 μg, agent 100 μg”, the “Linkage % of Nonapeptide H^3 in presence of agent” value (“Linkage %” for short) is 5.4%.
`Nc1ncnc2c1ncn2[C@@H]1O[C@H](COP(=O)(O)OP(=O)(O)O)[C@@H](O)[C@H]1O` [ADP, reference compound]: the “Linkage %” value (Table VIII, Nonapeptide H^3 15 ng, platelet membranes 30 μg, agent 10^-2 M) is recorded as 4.3%.
For `CCCCC/C=C\C/C=C\C/C=C\C/C=C\CCCC(=O)O` [Arachidonic acid, reference compound], the “Linkage %” value (Table VIII, Nonapeptide H^3 15 ng, platelet membranes 30 μg, agent 6 nM) came out at 4.1%.
For the molecule GK[Hyp]GE[Hyp]GPK [Nonapeptide H^3], the “Linkage (%) after dissociation time” value is, setting by setting: (Nonapeptide H^3 3 ng, 30 μg membranes, dilution 1/80, 0') 3.2%; (Nonapeptide H^3 3 ng, dilution 1/80 + 100 μg of nonapeptide, 0') 3.2%; (Nonapeptide H^3 3 ng, dilution 1/80 + 100 μg of nonapeptide, 2') 1%; (Nonapeptide H^3 3 ng, dilution 1/80 + 100 μg of nonapeptide, 10') 0.5%; (Nonapeptide H^3 3 ng, dilution 1/80 + 100 μg of nonapeptide, 15') 0.1%; (Nonapeptide H^3 3 ng, dilution 1/80, 2') 1.75%. The “Linkage (%) after dissociation time” value runs as follows: (Nonapeptide H^3 3 ng, dilution 1/80, 5') 1.55%; (Nonapeptide H^3 3 ng, dilution 1/80, 10') 1%; (Nonapeptide H^3 3 ng, dilution 1/80, 15') 0.6%; (Nonapeptide H^3 6 ng, dilution 1/80 + 100 μg of nonapeptide, 0') 5.9%; (Nonapeptide H^3 6 ng, dilution 1/80 + 100 μg of nonapeptide, 2') 3%; (Nonapeptide H^3 6 ng, dilution 1/80 + 100 μg of nonapeptide, 10') 1.5%. Also, the “Linkage (%) after dissociation time” value is recorded as 1% (Nonapeptide H^3 6 ng, dilution 1/80 + 100 μg of nonapeptide, 15'); 5.9% (Nonapeptide H^3 6 ng, dilution 1/80, 0'); 4.8% (Nonapeptide H^3 6 ng, dilution 1/80, 2'); 3% (Nonapeptide H^3 6 ng, dilution 1/80, 5'); 2.4% (Nonapeptide H^3 6 ng, dilution 1/80, 10'); 1.5% (Nonapeptide H^3 6 ng, dilution 1/80, 15'). Further, the “Linkage (%)” value by setting is: (Table VI, Nonapeptide H^3 3 ng, proteic concentration 20 μg) 2.1%; (Table VI, Nonapeptide H^3 3 ng, proteic concentration 40 μg) 3.8%; (Table VI, Nonapeptide H^3 3 ng, proteic concentration 60 μg) 4.3%; (Table VI, Nonapeptide H^3 3 ng, proteic concentration 80 μg) 4.6%; (Table VI, Nonapeptide H^3 3 ng, proteic concentration 100 μg) 5.3%; (Table VI, Nonapeptide H^3 30 ng, proteic concentration 20 μg) 3.5%. The “Linkage (%)” value came to 4.3% (Table VI, Nonapeptide H^3 30 ng, proteic concentration 40 μg); 5% (Table VI, Nonapeptide H^3 30 ng, proteic concentration 60 μg); 5.8% (Table VI, Nonapeptide H^3 30 ng, proteic concentration 80 μg); 6.15% (Table VI, Nonapeptide H^3 30 ng, proteic concentration 100 μg); 10.4% (Table VI, Nonapeptide H^3 30 ng, proteic concentration 200 μg); 13% (Table VI, Nonapeptide H^3 30 ng, proteic concentration 400 μg). Moreover, the “Linkage (%)” value is given as 13.8% (Table VI, Nonapeptide H^3 30 ng, proteic concentration 450 μg); 1.6% (Table VII, Nonapeptide H^3 3 ng); 3.5% (Table VII, Nonapeptide H^3 6 ng); 5.5% (Table VII, Nonapeptide H^3 12 ng); 7.5% (Table VII, Nonapeptide H^3 60 ng); 10.5% (Table VII, Nonapeptide H^3 300 ng). The molecule further showed a Linkage (%) (Table VIII, Nonapeptide H^3 15 ng, platelet membranes 30 μg, agent 0) of 4%.
